Reference: patent publication US4165379A, “N-acetyl thienamycin” (Merck & Co., Inc., priority 1977, dated 1979)
Where two headings read alike, the source gives them in different places.

Legend:
Staph aureus 2949 = experiment: Efficacy studies (mice), intraperitoneal infection (Table 4); type: in vivo, CD-1 female mice infected with Staph aureus; conditions: Staphylococcus aureus, 2949, ip, 168 h; i.p. × 2, at time of infection and again 6 hours later; challenge 13 LD50; survival seventh day after infection
Experimental: (§1) In determining the in vivo activity, N-acetyl thienamycin is dissolved in and diluted with 0.01 M sodium phosphate, pH 7.0, to provide five fourfold concentrations of drug for testing. Female white Swiss mice, averaging about 21 g. in weight, were infected intraperitoneally with the test organism suspended in broth. The numbers of organisms injected were determined by standard plate-count techniques. At the time of infection, and again 6 hours later, certain of the mice were treated intraperitoneally with the antibiotic. Five mice were used for each concentration of drug tested. Controls of five mice for each of several dilutions of the infecting culture were included in each test in order to calculate the numbers of organisms that were lethal to 50% of the infected, untreated mice (LD50). This calculation was made using survival data of the seventh day after infection, at which time the amount of drug that should protect 50% of the infected mice (ED50) also was calculated.

[1] = pKa from the λ max dependence on pH; type: physicochemical; conditions: read-out: pKa for a COOH group
[2] = test system: Vibrio percolans ATCC 8461; experiment: Disc-diffusion bioassay on ATCC 8461 plates; type: cell-based; conditions: crude sample (244 absorbance units at 298 nm); 1/2 inch disc, 0.1 ml of 1000 fold dilution; 25° C.
Experimental: Assays of antibacterial activity are run according to the following disc-diffusion method using either Vibrio percolans ATCC 8461 or Staphylococcus aureus ATCC […] as tester organism. Plates containing Vibrio percolans ATCC 8461 are prepared as follows: A lyophilized culture of Vibrio percolans ATCC 8461 is suspended in 15 ml. of a sterilized medium containing 8 g./l. of Difco Nutrient Broth and 2 g./l. of yeast extract in distilled water (hereinafter designated NBYE). The culture is incubated overnight on a rotary shaker at 28° C. This culture is used to inoculate the surface of […] containing 1.5% agar in NBYE, and the inoculated […] incubated overnight at 28° C. and then stored in a refrigerator. The refrigerated […] prepared from a single lyophilized culture are used for up to four weeks from their preparation, as follows: A loop of inoculum from the slant is dispersed in 50 ml. of NBYE contained in a 250 ml. Erlenmeyer flask. […] The plates are incubated at 37° C. overnight, and the zone of inhibition is measured as mm. diameter. The zone of inhibition measured in mm. determines relative potencies. […] The solution contains 244 absorbance units at 298 nm and a 1/2 inch assay disc containing 0.1 ml. of a 1000 fold dilution, produces a 23 mm. zone of inhibition when incubated on ATCC 8461 plates at 25° C.

[3] = test system: gram-negative and gram-positive organisms; experiment: In vivo activity against infections in mice; conditions: mouse
Experimental: as §1

Staphylococcus aureus = experiment: Bauer-Kirby disc diffusion antibiotic spectrum (Table 3); type: cell-based; conditions: for diameter of the zone of inhibition: MB2314, resistance P (penicillins)
Excerpt: (§2) The test employs the Bauer-Kirby disc diffusion method modified only in respect to the 2 mm. agar depth employed here.

Serratia = experiment: as above; type: cell-based; conditions: MB2840, resistance P,C (penicillins, cephalosporins), read-out: diameter of the zone of inhibition
Excerpt: as §2

Escherichia coli = experiment: as above; type: cell-based; conditions: read-out: diameter of the zone of inhibition; for zone of inhibition at 10.35 µg/disc: Escherichia coli, 10.35 μg/disc, prepared by acetylating thienamycin; for zone of inhibition at 9.85 µg/disc: 9.85 μg/disc, prepared by fermenting Streptomyces cattleya
Excerpt: as §2

Pseudomonas aeruginosa = experiment: as above; type: cell-based; conditions: read-out: diameter of the zone of inhibition; for zone of inhibition at 9.85 µg/disc: 9.85 μg/disc, prepared by fermenting Streptomyces cattleya; for zone of inhibition at 10.35 µg/disc: Pseudomonas aeruginosa, 10.35 μg/disc, prepared by acetylating thienamycin
Excerpt: as §2

Klebsiella pneumoniae = experiment: as above; type: cell-based; conditions: read-out: diameter of the zone of inhibition; for zone of inhibition at 10.35 µg/disc: Klebsiella pneumoniae, 10.35 μg/disc, prepared by acetylating thienamycin; for zone of inhibition at 9.85 µg/disc: 9.85 μg/disc, prepared by fermenting Streptomyces cattleya
Excerpt: as §2

Proteus morganii = experiment: as above; type: cell-based; conditions: MB2833, resistance P,C (penicillins, cephalosporins), read-out: diameter of the zone of inhibition
Excerpt: as §2

Proteus mirabilis = experiment: as above; type: cell-based; conditions: MB2830, resistance P,C (penicillins, cephalosporins), read-out: diameter of the zone of inhibition
Excerpt: as §2

Bacillus subtilis = experiment: as above; type: cell-based; conditions: MB 964, ATCC 6633, read-out: diameter of the zone of inhibition
Excerpt: as §2

Enterobacter cloacae = experiment: as above; type: cell-based; conditions: read-out: diameter of the zone of inhibition; for zone of inhibition at 10.35 µg/disc: Enterobacter cloacae, 10.35 μg/disc, prepared by acetylating thienamycin; for zone of inhibition at 9.85 µg/disc: 9.85 μg/disc, prepared by fermenting Streptomyces cattleya
Excerpt: as §2

[4] = test system: Staphylococcus aureus ATCC 6538P; experiment: Disc-diffusion potency in units/mg relative to cephalothin; type: cell-based
Experimental: Plates containing Staphylococcus aureus ATCC 6538P are prepared as follows:
An overnight growth of the assay organism, Staphylococcus aureus ATCC 6538P, in nutrient broth plus 0.2% yeast extract is diluted with nutrient broth plus 0.2% yeast extract to a suspension having 55% transmittance at a wavelength of 660 nm. This suspension is added to Difco nutrient agar supplemented with 2.0 g./l. Difco yeast extract at 47° C. to 48° C., to make a composition containing 33.2 ml. of the suspension per liter of agar. Five ml. of this suspension is poured into petri dishes of 85 mm. diameter, and these plates are chilled and held at 4° C. until used (5 day maximum).
Samples of antibiotic to be assayed are diluted to an appropriate concentration in phosphate buffer at pH 7. Filter paper discs, 1/4 or 1/2 inch diameter, are dipped into the test solution and placed on the surface of the assay plate. The plates are incubated at 37° C. overnight, and the zone of inhibition is measured as mm. diameter. The zone of inhibition measured in mm. determines relative potencies.
The 48 l. concentrate is adjusted to pH 7.3 and adsorbed on 76 l. of Dowex 1×2, 50 to 100 mesh, chloride cycle resin at 7.6 l./min. The resin is eluted with deionized water at the same rate. Four fractions are collected, two of 48 l., one of 70 l. and one of 48 l. The fractions are adjusted to pH 7 as collected. Assays indicate that 68% of the starting bioactivity is in the 70 l. fraction. This fraction is concentrated to 18 l. at pH 7.0 and filtered using a 0.45 micron Millipore Filter.

[5] = 9.85 μg/disc, prepared by fermenting Streptomyces cattleya
[6] = MB2482, resistance P (penicillins)
[7] = MB2964, resistance P,C (penicillins, cephalosporins)
[8] = MB2824, resistance P,C (penicillins, cephalosporins)
[9] = MB2835, resistance P,C (penicillins, cephalosporins), zone hazy
[10] = MB3286, resistance P,C (penicillins, cephalosporins)
[11] = MB2921, resistance P (penicillins)
[12] = MB2922, resistance P (penicillins)
[13] = MB2646, resistance P,C (penicillins, cephalosporins)

## CC(=O)NCCSC1=C(C(=O)O)N2C(=O)C(C(C)O)C2C1 (centres unmarked) [N-Acetyl Thienamycin, N-acetyl thienamycin]
Staph aureus 2949
  ED50: 0.05 mg/kg
[1]
  pKa: 3.3 ± 0.1
[2]
  zone of inhibition: 23 mm
[3]
  in vivo activity: exhibits in vivo activity against gram-negative and gram-positive organisms
Staphylococcus aureus; [5]
  diameter of the zone of inhibition: 37 millimeters
Staphylococcus aureus; 10.35 μg/disc, prepared by acetylating thienamycin
  diameter of the zone of inhibition: 37 millimeters
Staphylococcus aureus; MB2985, 9.85 μg/disc, prepared by fermenting Streptomyces cattleya, read-out: diameter of the zone of inhibition
  zone of inhibition at 9.85 µg/disc: 37 mm
Staphylococcus aureus; Staphylococcus aureus, MB2985, 10.35 μg/disc, prepared by acetylating thienamycin, read-out: diameter of the zone of inhibition
  zone of inhibition at 10.35 µg/disc: 37 mm
Serratia; [5]
  zone of inhibition at 9.85 µg/disc: 27 mm
Serratia; Serratia, 10.35 μg/disc, prepared by acetylating thienamycin
  zone of inhibition at 10.35 µg/disc: 27 mm
Escherichia coli; [6]
  zone of inhibition at 10.35 µg/disc: 28 mm
  zone of inhibition at 9.85 µg/disc: 28 mm
Escherichia coli; MB2884
  zone of inhibition at 10.35 µg/disc: 31.5 mm
  zone of inhibition at 9.85 µg/disc: 31.5 mm
Escherichia coli; [7]
  zone of inhibition at 10.35 µg/disc: 29.5 mm
  zone of inhibition at 9.85 µg/disc: 28.5 mm
Pseudomonas aeruginosa; [8]
  zone of inhibition at 9.85 µg/disc: 23 mm
  zone of inhibition at 10.35 µg/disc: 24 mm
Pseudomonas aeruginosa; [9]
  zone of inhibition at 9.85 µg/disc: 11 mm
  zone of inhibition at 10.35 µg/disc: 11 mm
Pseudomonas aeruginosa; [10]
  zone of inhibition at 9.85 µg/disc: 0 mm
  zone of inhibition at 10.35 µg/disc: 0 mm
Klebsiella pneumoniae; [11]
  zone of inhibition at 10.35 µg/disc: 28.5 mm
  zone of inhibition at 9.85 µg/disc: 28 mm
Klebsiella pneumoniae; [12]
  zone of inhibition at 10.35 µg/disc: 30 mm
  zone of inhibition at 9.85 µg/disc: 27 mm
Proteus morganii; [5]
  zone of inhibition at 9.85 µg/disc: 25.5 mm
Proteus morganii; Morganella morganii, 10.35 μg/disc, prepared by acetylating thienamycin
  zone of inhibition at 10.35 µg/disc: 25 mm
Proteus mirabilis; [5]
  zone of inhibition at 9.85 µg/disc: 25 mm
Proteus mirabilis; Proteus mirabilis, 10.35 μg/disc, prepared by acetylating thienamycin
  zone of inhibition at 10.35 µg/disc: 26 mm
Bacillus subtilis; Bacillus subtilis, ATCC6633, 10.35 μg/disc, prepared by acetylating thienamycin
  zone of inhibition at 10.35 µg/disc: 44.5 mm
Bacillus subtilis; [5]
  zone of inhibition at 9.85 µg/disc: 43 mm
Enterobacter cloacae; [13]
  zone of inhibition at 10.35 µg/disc: 27 mm
  zone of inhibition at 9.85 µg/disc: 26.5 mm
Enterobacter cloacae; MB2647
  zone of inhibition at 10.35 µg/disc: 29 mm
  zone of inhibition at 9.85 µg/disc: 29 mm

## C[C@@H](O)[C@H]1C(=O)N2C(C(=O)O)=C(SCCN)C[C@H]12 [thienamycin]
[4]; 23.6 mg. after second XAD-2 column
  calculated potency: 30,140 units/mg
[4]; 90 mg. after Bio-Gel P-2, fractions 75 through 80
  average potency: 10,000 units/mg
[4]; 100.5 mg. after Bio-Gel P-2, fractions 75 through 79
  potency: 8,320 units/mg
[4]; after second XAD-2 column, 3.1 fold purification
  calculated potency: 31,000 units/mg
[4]; freeze-dried product after Dowex 1×2
  potency: 310 units/mg
